Reference: patent US9963452B2, “Methods, compounds, and compositions for inhibition of ROS” (AUGUSTA PHARMACEUTICALS INC., priority 2013, dated 2018)

Tests used:
[1] = test system: HeLa cervical cancer cell line; assay: In-vitro cell survival assay (Alamar blue), HeLa; format: cell-based; details: Homo sapiens, 24 h, one day after compound addition
Method: (§1) Five tumor-derived cell lines were treated with the ROS inhibitor compounds and cell survival was monitored to determine the cancer prohibition effects of the compounds. The cell lines included HeLa, a cervical cancer cell line, and four glioblastoma cell lines U138, U87, LN18, and U118. The basic protocol for the in-vitro cell survival assay is the same for all five cell lines. In particular, the cells were seeded in 96-well plates at 2-5×10^3 cells/well (cell line dependent) in culture medium. The cells were grown for 2 days before the compounds were dissolved in DMSO and added to final concentrations of 100 uM, 10 uM, or 1 uM (DMSO final concentration 0.5%). The cell culture was then assayed one day after the addition of the compounds. The assay used Alamar blue as a redox-sensitive dye that interrogates mitochondrial fitness of cells, and these assays provided a readout for cell proliferation and viability. The raw values were normalized to an average of several vehicle control wells and are presented as percent decrease in proliferation/viability, which is converted to half maximal effective concentration (EC50) values.

[2] = test system: LN18 glioblastoma cell line; assay: In-vitro cell survival assay (Alamar blue), LN18; format: cell-based; details: Homo sapiens, LN-18, 24 h; LN18, one day after compound addition
Method: as §1

[3] = test system: U87 glioblastoma cell line; assay: In-vitro cell survival assay (Alamar blue), U87; format: cell-based; details: 24 h; U87, one day after compound addition
Method: as §1

[4] = test system: U138 glioblastoma cell line; assay: In-vitro cell survival assay (Alamar blue), U138; format: cell-based; details: 24 h; U138, one day after compound addition
Method: as §1

ROS = ROS (Homo sapiens, UniProt P08922); assay: In vitro ROS enzymatic reaction assay (HTRF, Cisbio); format: biochemical; parameters: ROS or EGFR enzyme, 0.008 ng/ul; details: for inhibition at 5 µM / inhibition at 10 µM / Kinase Inhib. 10 uM (%) / Kinase Inhib. 5 uM (%): ROS kinase; for inhibition at 5 µM / Kinase Inhib. 5 uM (%): compound at 5 uM; for inhibition at 5 µM: read-out: Kinase Inhib. 5 uM (%); for inhibition at 10 µM / Kinase Inhib. 10 uM (%): compound at 10 uM; for inhibition at 10 µM: read-out: Kinase Inhib. 10 uM (%)
Method: The ROS enzymatic reactions were carried out with a high throughput screening platform for phosphor-detection of kinase activity. This platform based on homogeneous time resolved fluorescence (HTRF) technology from Cisbio Bioassays, Inc. (Cisbio). […] The reaction was allowed to proceed for 30 minutes at room temperature. An equal volume of detection buffer was then added to the reaction mix.

Sequence of ROS (P08922 28-2347): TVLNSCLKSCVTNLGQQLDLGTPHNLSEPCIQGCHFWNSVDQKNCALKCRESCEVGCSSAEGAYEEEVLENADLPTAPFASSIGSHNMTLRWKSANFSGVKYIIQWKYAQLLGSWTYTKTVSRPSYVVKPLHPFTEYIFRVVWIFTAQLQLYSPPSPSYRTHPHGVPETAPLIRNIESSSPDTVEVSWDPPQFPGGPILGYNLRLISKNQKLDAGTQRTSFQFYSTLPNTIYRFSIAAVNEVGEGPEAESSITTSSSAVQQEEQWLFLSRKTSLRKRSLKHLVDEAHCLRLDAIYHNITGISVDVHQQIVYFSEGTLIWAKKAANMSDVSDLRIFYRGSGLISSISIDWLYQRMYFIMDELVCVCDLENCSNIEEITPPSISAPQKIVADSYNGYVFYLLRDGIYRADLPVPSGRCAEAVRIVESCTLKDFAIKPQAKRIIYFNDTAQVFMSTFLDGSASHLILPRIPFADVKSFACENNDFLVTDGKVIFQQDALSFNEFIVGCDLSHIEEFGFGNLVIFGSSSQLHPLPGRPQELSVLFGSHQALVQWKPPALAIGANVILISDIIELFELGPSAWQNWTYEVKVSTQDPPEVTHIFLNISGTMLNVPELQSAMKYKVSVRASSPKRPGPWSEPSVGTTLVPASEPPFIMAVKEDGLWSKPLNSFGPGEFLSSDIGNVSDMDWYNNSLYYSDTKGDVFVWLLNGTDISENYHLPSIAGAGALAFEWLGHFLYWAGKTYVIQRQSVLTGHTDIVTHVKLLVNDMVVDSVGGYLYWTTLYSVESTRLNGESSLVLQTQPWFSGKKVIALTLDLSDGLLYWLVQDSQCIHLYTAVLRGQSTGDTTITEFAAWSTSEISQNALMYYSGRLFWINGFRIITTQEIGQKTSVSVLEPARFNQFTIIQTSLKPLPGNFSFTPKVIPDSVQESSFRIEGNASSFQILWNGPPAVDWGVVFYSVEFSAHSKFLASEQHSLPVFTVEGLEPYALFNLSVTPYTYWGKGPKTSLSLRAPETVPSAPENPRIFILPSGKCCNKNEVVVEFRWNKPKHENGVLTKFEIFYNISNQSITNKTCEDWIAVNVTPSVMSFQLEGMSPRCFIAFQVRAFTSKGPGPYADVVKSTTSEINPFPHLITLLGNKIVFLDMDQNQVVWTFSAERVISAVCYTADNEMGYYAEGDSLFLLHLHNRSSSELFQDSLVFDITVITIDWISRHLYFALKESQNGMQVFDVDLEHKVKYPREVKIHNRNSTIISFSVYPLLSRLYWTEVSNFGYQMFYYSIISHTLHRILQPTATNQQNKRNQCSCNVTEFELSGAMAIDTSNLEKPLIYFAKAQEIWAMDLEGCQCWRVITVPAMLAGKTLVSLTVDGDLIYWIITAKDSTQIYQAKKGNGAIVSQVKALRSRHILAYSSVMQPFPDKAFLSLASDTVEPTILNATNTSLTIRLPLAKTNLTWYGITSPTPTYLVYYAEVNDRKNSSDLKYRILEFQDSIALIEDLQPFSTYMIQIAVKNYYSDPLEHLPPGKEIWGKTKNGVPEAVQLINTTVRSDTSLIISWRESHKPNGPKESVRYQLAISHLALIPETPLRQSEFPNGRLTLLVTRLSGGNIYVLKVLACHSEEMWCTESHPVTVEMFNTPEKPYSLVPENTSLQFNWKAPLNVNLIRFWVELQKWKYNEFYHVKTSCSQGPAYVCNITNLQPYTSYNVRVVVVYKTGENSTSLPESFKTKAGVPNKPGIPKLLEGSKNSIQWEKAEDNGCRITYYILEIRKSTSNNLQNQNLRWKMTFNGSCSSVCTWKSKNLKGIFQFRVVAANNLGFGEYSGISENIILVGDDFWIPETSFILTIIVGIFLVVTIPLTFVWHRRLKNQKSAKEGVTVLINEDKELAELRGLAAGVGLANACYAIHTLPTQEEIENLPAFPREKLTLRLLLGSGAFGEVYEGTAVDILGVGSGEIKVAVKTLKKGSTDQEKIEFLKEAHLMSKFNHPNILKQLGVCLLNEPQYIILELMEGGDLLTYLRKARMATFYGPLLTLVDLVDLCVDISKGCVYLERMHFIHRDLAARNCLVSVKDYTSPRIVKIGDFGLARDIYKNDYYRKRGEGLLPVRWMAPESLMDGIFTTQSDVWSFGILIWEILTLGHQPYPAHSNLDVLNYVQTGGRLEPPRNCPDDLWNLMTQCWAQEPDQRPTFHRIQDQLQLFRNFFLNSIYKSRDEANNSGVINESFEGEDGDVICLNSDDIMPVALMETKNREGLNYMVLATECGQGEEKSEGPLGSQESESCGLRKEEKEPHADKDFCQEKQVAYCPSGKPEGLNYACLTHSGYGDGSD

Structure (SMILES) | inhibition at 5 µM (ROS) [%] | IC50 (ROS) [µM] | other results
O=C1NN=C(c2ccccc2)/C1=C/Nc1ccccc1 [drawing 368] |  |  | EC50 [1]: > 100 µM; EC50 [2]: > 100 µM
O=C(NCC1CCNCC1)c1ccc(Nc2ncc(Cl)c(Nc3ccc4ncsc4c3)n2)cc1 [drawing 468] |  |  | EC50 [3]: > 100 µM; EC50 [4]: > 100 µM; EC50 [1]: > 100 µM; EC50 [2]: > 100 µM
CC(C)c1nc(Nc2ccc(N)cc2)nc(Nc2cc(C3CC3)[nH]n2)n1 [drawing 461] |  |  | EC50 [3]: 35 µM; EC50 [4]: 8 µM; EC50 [1]: 14 µM; EC50 [2]: 40 µM
CC(C)c1nc(Nc2ccc(C(=O)NCC3CCCCC3)cc2)nc(Nc2cccc(Cc3nc4ccccc4s3)c2)n1 [drawing 454] |  |  | EC50 [3]: > 100 µM; EC50 [4]: > 100 µM; EC50 [1]: > 100 µM; EC50 [2]: > 100 µM
NCC1CCN(C(=O)c2ccc(Nc3ncc(Cl)c(Nc4ccc5ncsc5c4)n3)cc2)CC1 [drawing 463] |  |  | EC50 [3]: > 100 µM; EC50 [4]: 80 µM; EC50 [1]: 70 µM; EC50 [2]: 100 µM
O=C(c1ccccc1)n1nc(-c2ccco2)nc1NCc1ccc(Cl)cc1 [drawing 295] | 26.6 |  | 
Clc1ccc2nc(NCc3ccccn3)nc(-c3ccccc3)c2c1 [drawing 220] |  |  | inhibition at 10 µM (ROS): 25%
COc1ccccc1[C@@H]1C(C#N)=C(N)Oc2n[nH]c(C(F)(F)F)c21 |  | 1.7 | inhibition at 10 µM (ROS): 61.6%
Cc1ccc(NC=C2C(=O)NN=C2c2ccccc2)cc1 [drawing 370] |  |  | EC50 [1]: > 100 µM; EC50 [2]: 52 µM
O=c1nc2[nH]c3ccc([N+](=O)[O-])cc3nc-2c(=O)[nH]1 |  |  | Kinase Inhib. 5 uM (%) (ROS): 26.23%
CC(C)(C)c1cc(C(=O)NNc2cccc(Cl)c2)n(Cc2ccccc2)n1 [drawing 252] |  |  | Kinase Inhib. 10 uM (%) (ROS): 27.16%
COc1ccc(C(NC(=O)c2n[nH]c(-c3ccccc3)c2C)c2ccncc2)cc1 (centres unmarked) |  |  | Kinase Inhib. 5 uM (%) (ROS): 31.08%
Nc1cccc2cccc(N=C(CC(=O)O)C(=O)O)c12 [drawing 344] |  |  | inhibition at 10 µM (ROS): 24.6%
COc1ccc(NC(=O)CCn2ccc3ccccc32)cc1 [drawing 337] |  |  | inhibition at 10 µM (ROS): 29.5%
Clc1ccc(CNc2cc(-c3ccccc3)ncn2)cc1 [drawing 246] |  |  | inhibition at 10 µM (ROS): 21.2%
O=C(NCC1Cc2cc(-c3cncnc3)cc(Cl)c2O1)c1cccc(Cn2cccn2)c1 (centres unmarked) |  | > 100 | Kinase Inhib. 10 uM (%) (ROS): 30.25%
O=C1NCCN1CCN1C(=O)c2ccccc2N[C@H]1c1ccccc1 [drawing 254] |  |  | inhibition at 10 µM (ROS): 20.3%
COc1ccc(N/C=C2\C(=O)NN=C2c2ccccc2)cc1 [drawing 369] |  |  | EC50 [1]: 100 µM; EC50 [2]: 78 µM
O=C(NCCN1CCOCC1)c1cccc(Nc2nccc(Nc3ccc4ncsc4c3)n2)c1 [drawing 274] | 101 |  | 
CCOC(Nc1cc(-c2sccc2-n2c(C)ccc2C)[nH]n1)OCC [drawing 227] |  |  | Kinase Inhib. 10 uM (%) (ROS): 27.57%
Nc1nc(Nc2ccc(C(=O)NCCc3ccncc3)cc2)cc(Nc2ccc3ncsc3c2)n1 [drawing 280] | 61.1 |  | 
C[C@H](O)CN(C[C@H](C)O)C(=O)c1cccc(Nc2nccc(Nc3ccc4ncsc4c3)n2)c1 [drawing 283] | 101 |  | 
CCN(CCO)c1nc(Nc2ccc(F)cc2)c2cnn(-c3ccccc3)c2n1 [drawing 249] |  | 16.9 | Kinase Inhib. 10 uM (%) (ROS): 38.92%
CCc1cc(Br)ccc1NC(=O)CCn1ccc2ccccc21 [drawing 341] |  |  | inhibition at 10 µM (ROS): 20.8%
Cc1ccc(Cn2c(NCc3nc4ccccc4n3C)nc3ccccc32)cc1 [drawing 218] |  |  | inhibition at 10 µM (ROS): 20.2%
O=C(NCC(c1cccs1)S(=O)(=O)c1ccc(F)cc1)c1ccccc1 (centres unmarked) [drawing 297] | 85.1 | 0.48 | 

Structure (SMILES) | inhibition at 5 µM (ROS) [%] | IC50 (ROS) [µM] | other results
NC(=O)c1c(NC(=O)[C@H]2CC(=O)N(c3ccccc3)C2)sc2c1CCCC2 [drawing 219] |  | 1.3 | inhibition at 10 µM (ROS): 41.5%
O=C1NN=C(c2ccccc2)/C1=C1\OC(c2ccccc2)=CS1 [drawing 255] | 69.2 | 0.16 | inhibition at 10 µM (ROS): 77.8%
NC(Cc1ccccc1)C(=O)n1ccc2cccnc21 (centres unmarked) [drawing 342] |  |  | inhibition at 10 µM (ROS): 26.9%
CC(C)c1nc(Nc2ccc3ncsc3c2)nc(N2CCOCC2)n1 [drawing 315] | 23.5 | > 5 | 
COc1cccc(Nc2nc(N)c(C(=O)c3c(C)[nH]c4ccccc34)s2)c1 [drawing 247] |  |  | inhibition at 10 µM (ROS): 28.5%
CC(C)c1nc(Nc2ccc(C(=O)N3CCOCC3)cc2)nc(Nc2ccc3ncsc3c2)n1 [drawing 323] | 65.7 | 0.333 | 
Cn1c(=O)c2c(nc3n(CCO)c(-c4ccccc4)cn23)n(C)c1=O [drawing 265] |  |  | Kinase Inhib. 5 uM (%) (ROS): 26.87%
CC(C)c1nc(Nc2ccc3ncsc3c2)nc(N2CCCC2)n1 [drawing 314] | 20.9 | > 5 | 
CC(C)c1nc(Nc2ccc(C(=O)NCc3ccccc3)cc2)nc(Nc2cccc(Cc3nc4ccccc4s3)c2)n1 [drawing 316] | 45.1 | > 5 | 
CSc1sc(-c2n[nH]cc2Br)c2c1C(=O)CC(C)(C)C2 [drawing 259] |  | 10 | inhibition at 10 µM (ROS): 34%
O=C(c1cccc(Nc2nccc(Nc3ccc4ncsc4c3)n2)c1)N1CCCCC1 [drawing 301] | 100 | 0.392 | 
CC(C)c1nc(Nc2ccc(Br)cc2)nc(Nc2cc(C3CC3)n[nH]2)n1 |  | 0.067 | 
CC(C)CN(CC(C)C)C(=O)c1cccc(Nc2nccc(Nc3ccc4ncsc4c3)n2)c1 [drawing 287] | 99.6 | 1.3 | 
O=C(CCn1ccc2ccccc21)Nc1cnccn1 [drawing 340] |  |  | inhibition at 10 µM (ROS): 14.3%
Cc1ccc(F)cc1S(=O)(=O)Nc1cccc(C(=O)OCC(=O)NC2CCCCC2)c1 [drawing 267] | 20 |  | 
Cc1cc(C)c(NC(=O)c2cc3ccccc3c(=O)s2)c(-c2cc(C)[nH]n2)c1 [drawing 263] |  |  | Kinase Inhib. 5 uM (%) (ROS): 21.55%
Cc1ccc(-n2cc(-c3cccs3)nc2SCc2n[nH]c(=S)n2Cc2ccccc2)cc1 [drawing 256] |  |  | Kinase Inhib. 10 uM (%) (ROS): 28.13%
O=C(c1cccc(-c2noc(-c3n[nH]c4c3CCCC4)n2)c1)N1CCCCC1 [drawing 248] |  | 4.1 | inhibition at 10 µM (ROS): 39.5%
O=C(NCc1cccs1)c1cccc(Nc2nccc(Nc3ccc4ncsc4c3)n2)c1 [drawing 273] | 101 | 0.435 | 
Cc1cccc(Nc2nccc(Nc3cccc(C(=O)NC4CCN(C)CC4)c3)n2)c1 [drawing 285] | 98.6 | 1.42 | 
COc1ccc(N/C=C2\C(=O)NN=C2c2ccccc2)cc1 [drawing 232] | 34.2 |  | 
Cc1ccc(NC(=O)CCn2ccc3ccccc32)cc1 [drawing 335] |  |  | inhibition at 10 µM (ROS): 27.5%
FC(F)(F)c1cc(-n2c(Cc3cccc4ccccc34)n[nH]c2=S)cc(C(F)(F)F)c1 [drawing 260] |  |  | Kinase Inhib. 5 uM (%) (ROS): 28.49%
Cc1cccc(Nc2nccc(Nc3cccc(C(=O)Nc4ccc(F)cc4)c3)n2)c1 [drawing 245] | 47.3 |  | 
Nc1nc(Nc2ccc(C(=O)N3CCCC4CCCCC43)cc2)cc(Nc2ccc3ncsc3c2)n1 (centres unmarked) |  |  | Kinase Inhib. 5 uM (%) (ROS): 27.92%
CC(C)c1nc(Nc2cccc(Br)c2)nc(Nc2cc(C3CC3)n[nH]2)n1 |  | 0.038 | 

The next lines start with results.

inhibition at 5 µM (ROS) [%] | IC50 (ROS) [µM] | Structure (SMILES) | other results
43.7 |  | Cc1ccc(NC=C2C(=O)NN=C2c2ccccc2)cc1 [drawing 233] | 
 | > 100 | Cc1cc(C)n(-c2cccc(C(=O)NCC3Cc4cc(Cl)cc(-c5cnccn5)c4O3)c2)n1 (centres unmarked) | Kinase Inhib. 10 uM (%) (ROS): 29.68%
 | 4 | COc1ccccc1-c1cc(C(F)F)n2ncc(C(=O)NCc3cccnc3)c2n1 [drawing 224] | inhibition at 10 µM (ROS): 35%
96.3 | 0.361 | CC(C)(CO)NC(=O)c1cccc(Nc2nccc(Nc3ccc4ncsc4c3)n2)c1 [drawing 271] | 
92.5 | 1.88 | CC(C)c1nc(Nc2ccc(C(=O)N3CCCC3)cc2)nc(Nc2ccc3ncsc3c2)n1 [drawing 320] | 
 | 0.086 | CC(C)c1nc(Nc2cccc(Br)c2)nc(Nc2ccc3ncsc3c2)n1 | 
 | 9.26 | CCOc1nc(Nc2cccc(Cc3nc4ccccc4s3)c2)nc(C(C)C)n1 | 
49 | 3.81 | Nc1nc(Nc2ccc(C(=O)NCc3ccco3)cc2)cc(Nc2ccc3ncsc3c2)n1 [drawing 238] | 
101 | 0.271 | CN(C)CC(C)(C)CNC(=O)c1cccc(Nc2nccc(Nc3ccc4ncsc4c3)n2)c1 [drawing 276] | 
37.1 |  | NC(=O)c1c(NC(=O)Nc2ccccc2)sc2c1CCCC2 [drawing 264] | 
 | 0.358 | CC(C)c1nc(NCc2ccccc2)nc(Nc2ccc3ncsc3c2)n1 | 
99.1 | 0.196 | Cc1ccc(CNC(=O)c2cccc(Nc3nccc(Nc4ccc5ncsc5c4)n3)c2)o1 [drawing 282] | 
29.6 |  | CC(=O)N[C@@H]1CCN(C(=O)c2cccc(Nc3cc(N(C)c4cccc(C)c4)ncn3)c2)C1 [drawing 241] | 
